Assay results taken from patent publication US8778889B2, “Antimicrobial decapeptide oral hygiene treatment” (The United States of America as represented by the …, priority 2003, dated 2014).
Ends that are not written are not given here.

Experiments:
[1] = tested on: oral biofilms formed on saliva-coated HA disks by salivary bacteria; assay: In vitro plaque assay, viable counts of oral biofilms on saliva-coated HA disks; type: cell-based, human salivary bacteria; details: KSL 200 μg/ml
Excerpt: In conjunction with the dual flow cell system, a modification of an in vitro plaque model of biofilm formation described by Guggenheim et al. (Guggenheim et al., 2001) was used to determine the effects of tested antimicrobials and other agents on developed oral biofilms (see Appendix I for details). HA disks (Clarkson, south Williamsport, Pa.) were employed as substrates for salivary bacteria to form biofilms.
To determine the inhibitory activity of KSL on developed oral biofilms, disks containing 45 h-old biofilms were transferred to wells containing aqueous KSL (200 μg/ml; 1 ml/well). Following 30 min exposure at 37° C., disks were rinsed with 3×1 ml of saline and transferred to sterile 15 ml polypropylene tubes containing 1 ml PBS. Biofilm cells adherent to surfaces (after treatment) were recovered by sonicating for 2 min at 5 watts with a Microson ultrasonic cell disrupter equipped with a cup horn (Misonix Inc., Farmingdale, N.Y.). Settings including the time interval used in the sonication were predetermined empirically to yield maximal recovery of adherent biofilm cells.
The effect of KSL on disrupted biofilms was assessed by recovering biofilm cells from HA disks (45 h-old biofilms) through sonication as described above. The detached biofilm cells (in sterile dH2O) were mixed with an equal volume of aqueous KSL to obtain a final peptide concentration of 200 μg/ml, and the reaction mixtures incubated at 37° C. for 30 min. The interactions of KSL and suspended biofilm cells were terminated by washing in PBS.
To determine the effect of the surface-active agent (benzalkonium chloride; Sigma, St. Louis, Mo.) in promoting the killing of intact biofilms by KSL, 66 h-old oral biofilms were treated with KSL (200 μg/ml), benzalkonium chloride (0.001%), or a combination of the two agents, followed by viable counts determinations and confocal laser scanning microscopy of treated samples.
Viable counts of biofilm cells derived from treated disks or disrupted biofilms were determined by spiral plating serially diluted samples onto blood agar plates. Distilled water or 0.12% aqueous chlorhexidine digluconate (Sigma) was used as the negative or positive control, respectively. The 45 h-old biofilms were exposed to chlorhexidine for 1 min, and to water for 30 min at 37° C.
In this assay, HA disks (Clarkson Chromatography Products, Inc., South Williamsport, Pa.) were used as surfaces on which plaque formation can occur. Before use, sterile HA disks were conditioned in the wells of a 24-well microtiter plate (Becton Dickinson, Franklin Lakes, N.J.) containing 50% sterile saliva by incubating at room temperature for a minimum of two hours on a rotating platform at 95 rpm. The saliva was removed and each well inoculated with isolated salivary bacteria at a bacterial cell concentration of 1.0×10^7 cells/ml in sterile 50% whole saliva. After two hours of incubation (with rotation) at 37° C. to allow the bacteria to adhere to surfaces, unattached bacteria were removed and replaced with supplemented saliva-based medium. The plates were incubated with rotation at 37° C. for 45 h (with medium replaced three times), or 66 h (with medium replaced five times) in a CO2 incubator prior to treatments, and the recovery of biofilm cells from treated or untreated disks.
In these studies, KSL or KSL-W was used at 200 μg/ml, whereas Bzl and CPC were used at 0.001% and 0.0025%, respectively. […]

[2] = tested on: biofilms grown on saliva-coated HA surfaces; assay: Live/Dead BacLight staining with confocal laser scanning microscopy of treated biofilms; type: cell-based, human salivary bacteria; details: 66 h-old biofilms; KSL 200 μg/ml, Bzl 0.001%, CHX 0.12%
Method: (A) Effect of KSL on intact versus disrupted 45 h biofilms formed on saliva-coated HA disks by salivary bacteria using the in vitro plaque assay. A Mann-Whitney test was used for comparison of log reductions in CFU between the experimental groups (KSL-treated intact or disrupted biofilms) with the control groups (dH2O-treated intact or disrupted biofilms). The single asterisk represents a statistically significant difference between KSL and dH2O-treated intact biofilms (p<0.05). Likewise, double asterisks represent a statistically significant difference between KSL and dH2O-treated disrupted biofilms (p<0.01). […] (B) Effect of benzalkonium chloride in promoting the bactericidal activity of KSL against 66 h-old intact oral biofilms formed on saliva-coated HA disks using the in vitro plaque system. A Kruskal-Wallis test was used to compare log reductions in CFU among various treatment groups including the control group (dH2O-treated). The single asterisk represents a statistically significant difference between the combined treatment of KSL and benzalkonium chloride (Bzl) and dH2O (p<0.001), KSL (p<0.01), or Bzl (p<0.01)-treated intact biofilms. Double asterisks represent a statistically significant difference between CHX and dH2O (p<0.001) or Bzl (P<0.05)-treated intact biofilms. […] No significant difference in viability counts was observed between CHX-treated versus the combined use of KSL and Bzl. For (A) and (B), the data represent the determinations of one of three separate experiments, each performed in quadruplicate. Bars represent standard deviations. (C) Confocal images of control and treated biofilms grown on saliva-coated HA surfaces. Live/Dead BacLight™ Viability kit (Molecular Probes, Eugene, Oreg.) was used to assess the viability of biofilm cells exposed to different treatments. […] An excitation wavelength of 488 nm was used and the fluorescence light emitted was collected by two separate emission filters, 500-530 nm (SYTO 9, live), and 650-710 nm (propidium iodide, dead). […]

## KKVVFKVKFK-NH2 [KSL, Lys-Lys-Val-Val-Phe-Lys-Val-Lys-Phe-Lys-NH2]
[1]; 45 h-old biofilms disrupted by sonication, 30 min, 37° C.
  reduction of viability, disrupted biofilms, versus dH2O-treated control cells: 1.8 log
[1]; 66 h-old oral biofilms, benzalkonium chloride 0.001%
  effect on viability of intact biofilms compared to water treatment: less effect on the viability
[1]; intact 45-h-old biofilms, 30 min, 37° C.
  reduction of viable counts, intact biofilms: small reduction of viable counts
[2]
  viability of biofilm cells by live/dead staining: less impact on the viability of biofilm cells
